# Results as given in PubChem BioAssay AID1963968 (Molecular Pharmacology Branch, DTP, NCI, 2024).
# Test system: 945468-187-T-J3-PDC spheroids with HUVEC/MSC, viability
# Experiment: Anticancer human tumor 945468-187-T-J3-PDC patient-derived rectal carcinoma cell line growth inhibition [PI3K]
# Conditions: for IC50: curve of first compound; for viability, T/C: stronger effect = lower value
# Method in brief: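 Agents were dosed from a top concentration near clinical Cmax (otherwise 10 microM) in half-log decrements, alone or combined with PI3K inhibitors. The spheroids contain tumor cells plus endothelial (HUVEC) and MSC stroma; viability is measured.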
# [1] = second compound 0.0316 µM, first compound 0.0316 µM
# [2] = second compound 0.0316 µM, first compound 0.1 µM
# [3] = second compound 0.0316 µM, first compound 0.316 µM
# [4] = second compound 0.0316 µM, first compound 1 µM
# [5] = second compound 0.0316 µM, first compound 3.16 µM
# [6] = second compound 0.0316 µM, first compound 10 µM
# [7] = second compound 0.1 µM, first compound 0.0316 µM
# [8] = second compound 0.1 µM, first compound 0.1 µM
# [9] = second compound 0.1 µM, first compound 0.316 µM
# [10] = second compound 0.1 µM, first compound 1 µM
# [11] = second compound 0.1 µM, first compound 3.16 µM
# [12] = second compound 0.1 µM, first compound 10 µM
# [13] = second compound 0.316 µM, first compound 0.0316 µM
# [14] = second compound 0.316 µM, first compound 0.1 µM
# [15] = second compound 0.316 µM, first compound 0.316 µM
# [16] = second compound 0.316 µM, first compound 1 µM
# [17] = second compound 0.316 µM, first compound 3.16 µM
# [18] = second compound 0.316 µM, first compound 10 µM
# [19] = second compound 1 µM, first compound 0.0316 µM
# [20] = second compound 1 µM, first compound 0.1 µM
# [21] = second compound 1 µM, first compound 0.316 µM
# [22] = second compound 1 µM, first compound 1 µM
# [23] = second compound 1 µM, first compound 3.16 µM
# [24] = second compound 1 µM, first compound 10 µM
# [25] = second compound 3.16 µM, first compound 0.0316 µM
# [26] = second compound 3.16 µM, first compound 0.1 µM
# [27] = second compound 3.16 µM, first compound 0.316 µM
# [28] = second compound 3.16 µM, first compound 1 µM
# [29] = second compound 3.16 µM, first compound 3.16 µM
# [30] = second compound 3.16 µM, first compound 10 µM
# [31] = second compound 10 µM, first compound 0.0316 µM
# [32] = second compound 10 µM, first compound 0.1 µM
# [33] = second compound 10 µM, first compound 0.316 µM
# [34] = second compound 10 µM, first compound 1 µM
# [35] = second compound 10 µM, first compound 3.16 µM
# [36] = second compound 10 µM, first compound 10 µM
# 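Note: spheroids exposed to agents for 7 days before viability read.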
# 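Throughout, for viability, T/C: 100% = DMSO vehicle control viability.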
structure (smiles),measurement,setting,value
C=CC(=O)N1CCN(c2nc(=O)n(-c3c(C)ccnc3C(C)C)c3nc(-c4c(O)cccc4F)c(F)cc23)C(C)C1 (stereo not given) + Cc1nc(NC(=O)N2CCCC2C(N)=O)sc1-c1ccnc(C(C)(C)C(F)(F)F)c1,IC50,second compound 0.0316 µM,> 10000 nM
same,IC50,second compound 0.1 µM,> 10000 nM
same,IC50,second compound 0.316 µM,> 10000 nM
same,IC50,second compound 1 µM,> 10000 nM
same,IC50,second compound 3.16 µM,> 10000 nM
same,IC50,second compound 10 µM,> 10000 nM
same,"viability, T/C",[1],106%
same,"viability, T/C",[2],108%
same,"viability, T/C",[3],102%
same,"viability, T/C",[4],108%
same,"viability, T/C",[5],110%
same,"viability, T/C",[6],114%
same,"viability, T/C",[7],108%
same,"viability, T/C",[8],99.8%
same,"viability, T/C",[9],103%
same,"viability, T/C",[10],109%
same,"viability, T/C",[11],114%
same,"viability, T/C",[12],99%
same,"viability, T/C",[13],103%
same,"viability, T/C",[14],102%
same,"viability, T/C",[15],100%
same,"viability, T/C",[16],115%
same,"viability, T/C",[17],105%
same,"viability, T/C",[18],98.6%
same,"viability, T/C",[19],126%
same,"viability, T/C",[20],118%
same,"viability, T/C",[21],102%
same,"viability, T/C",[22],123%
same,"viability, T/C",[23],122%
same,"viability, T/C",[24],107%
same,"viability, T/C",[25],110%
same,"viability, T/C",[26],109%
same,"viability, T/C",[27],112%
same,"viability, T/C",[28],108%
same,"viability, T/C",[29],113%
same,"viability, T/C",[30],115%
same,"viability, T/C",[31],71.1%
same,"viability, T/C",[32],64.5%
same,"viability, T/C",[33],58.3%
same,"viability, T/C",[34],67.5%
same,"viability, T/C",[35],90.8%
same,"viability, T/C",[36],79.1%
CC(C)NCC(C(=O)N1CCN(c2ncnc3c2C(C)CC3O)CC1)c1ccc(Cl)cc1 (stereo not given) + Cc1nc(NC(=O)N2CCCC2C(N)=O)sc1-c1ccnc(C(C)(C)C(F)(F)F)c1,IC50,second compound 0.0316 µM,> 10000 nM
same,IC50,second compound 0.1 µM,> 10000 nM
same,IC50,second compound 0.316 µM,5360 nM
same,IC50,second compound 1 µM,2900 nM
same,IC50,second compound 3.16 µM,1710 nM
same,IC50,second compound 10 µM,303 nM
same,"viability, T/C",[1],109%
same,"viability, T/C",[2],116%
same,"viability, T/C",[3],84.4%
same,"viability, T/C",[4],94.1%
same,"viability, T/C",[5],76.9%
same,"viability, T/C",[6],55%
same,"viability, T/C",[7],103%
same,"viability, T/C",[8],101%
same,"viability, T/C",[9],93.3%
same,"viability, T/C",[10],91.8%
same,"viability, T/C",[11],80.6%
same,"viability, T/C",[12],54.6%
same,"viability, T/C",[13],114%
same,"viability, T/C",[14],104%
same,"viability, T/C",[15],99.4%
same,"viability, T/C",[16],88.3%
same,"viability, T/C",[17],60%
same,"viability, T/C",[18],36.4%
same,"viability, T/C",[19],99.6%
same,"viability, T/C",[20],104%
same,"viability, T/C",[21],91.9%
same,"viability, T/C",[22],80.7%
same,"viability, T/C",[23],46.5%
same,"viability, T/C",[24],32.6%
same,"viability, T/C",[25],92.6%
same,"viability, T/C",[26],87.8%
same,"viability, T/C",[27],82.1%
same,"viability, T/C",[28],59.3%
same,"viability, T/C",[29],38.9%
same,"viability, T/C",[30],27.1%
same,"viability, T/C",[31],68.9%
same,"viability, T/C",[32],54.6%
same,"viability, T/C",[33],51%
same,"viability, T/C",[34],45%
same,"viability, T/C",[35],36.9%
same,"viability, T/C",[36],33.2%
CCN1CCN(Cc2ccc(Nc3ncc(F)c(-c4cc(F)c5nc(C)n(C(C)C)c5c4)n3)nc2)CC1 + Cc1nc(NC(=O)N2CCCC2C(N)=O)sc1-c1ccnc(C(C)(C)C(F)(F)F)c1,IC50,second compound 0.0316 µM,> 1000 nM
same,IC50,second compound 0.1 µM,> 1000 nM
same,IC50,second compound 0.316 µM,> 1000 nM
same,IC50,second compound 1 µM,735 nM
same,IC50,second compound 3.16 µM,299 nM
same,IC50,second compound 10 µM,35.5 nM
same,"viability, T/C","second compound 0.0316 µM, first compound 0.00316 µM",83.5%
same,"viability, T/C","second compound 0.0316 µM, first compound 0.01 µM",103%
same,"viability, T/C",[1],95.6%
same,"viability, T/C",[2],105%
same,"viability, T/C",[3],115%
same,"viability, T/C",[4],105%
same,"viability, T/C","second compound 0.1 µM, first compound 0.00316 µM",87.8%
same,"viability, T/C","second compound 0.1 µM, first compound 0.01 µM",97.9%
same,"viability, T/C",[7],107%
same,"viability, T/C",[8],103%
same,"viability, T/C",[9],121%
same,"viability, T/C",[10],102%
same,"viability, T/C","second compound 0.316 µM, first compound 0.00316 µM",97%
same,"viability, T/C","second compound 0.316 µM, first compound 0.01 µM",96.2%
same,"viability, T/C",[13],95.6%
same,"viability, T/C",[14],107%
same,"viability, T/C",[15],113%
same,"viability, T/C",[16],53.5%
same,"viability, T/C","second compound 1 µM, first compound 0.00316 µM",102%
same,"viability, T/C","second compound 1 µM, first compound 0.01 µM",103%
same,"viability, T/C",[19],101%
same,"viability, T/C",[20],106%
same,"viability, T/C",[21],90.3%
same,"viability, T/C",[22],35.2%
same,"viability, T/C","second compound 3.16 µM, first compound 0.00316 µM",107%
same,"viability, T/C","second compound 3.16 µM, first compound 0.01 µM",97.5%
same,"viability, T/C",[25],88.9%
same,"viability, T/C",[26],99.3%
same,"viability, T/C",[27],47.5%
same,"viability, T/C",[28],26.9%
same,"viability, T/C","second compound 10 µM, first compound 0.00316 µM",65.6%
same,"viability, T/C","second compound 10 µM, first compound 0.01 µM",59.4%
same,"viability, T/C",[31],45.6%
same,"viability, T/C",[32],45.8%
same,"viability, T/C",[33],35.2%
same,"viability, T/C",[34],23.7%
Cn1ncc(Cl)c1-c1cc(C(=O)NC(CN)Cc2cccc(F)c2)sc1Cl (stereo not given) + Cc1nc(NC(=O)N2CCCC2C(N)=O)sc1-c1ccnc(C(C)(C)C(F)(F)F)c1,IC50,second compound 0.0316 µM,4060 nM
same,IC50,second compound 0.1 µM,2930 nM
same,IC50,second compound 0.316 µM,1950 nM
same,IC50,second compound 1 µM,1430 nM
same,IC50,second compound 3.16 µM,605 nM
same,IC50,second compound 10 µM,131 nM
same,"viability, T/C",[1],86.1%
same,"viability, T/C",[2],106%
same,"viability, T/C",[3],96.3%
same,"viability, T/C",[4],83%
same,"viability, T/C",[5],54.6%
same,"viability, T/C",[6],35.1%
same,"viability, T/C",[7],110%
same,"viability, T/C",[8],97.2%
same,"viability, T/C",[9],93.5%
same,"viability, T/C",[10],60.1%
same,"viability, T/C",[11],53.7%
same,"viability, T/C",[12],34.1%
same,"viability, T/C",[13],114%
same,"viability, T/C",[14],119%
same,"viability, T/C",[15],94%
same,"viability, T/C",[16],61.8%
same,"viability, T/C",[17],44.6%
same,"viability, T/C",[18],29.7%
same,"viability, T/C",[19],109%
same,"viability, T/C",[20],108%
same,"viability, T/C",[21],82.4%
same,"viability, T/C",[22],54%
same,"viability, T/C",[23],39.8%
same,"viability, T/C",[24],21.1%
same,"viability, T/C",[25],107%
same,"viability, T/C",[26],84%
same,"viability, T/C",[27],53.2%
same,"viability, T/C",[28],45%
same,"viability, T/C",[29],32.7%
same,"viability, T/C",[30],16.4%
same,"viability, T/C",[31],60.6%
same,"viability, T/C",[32],52.2%
same,"viability, T/C",[33],40%
same,"viability, T/C",[34],31.9%
same,"viability, T/C",[35],28.4%
same,"viability, T/C",[36],4.34%
Cn1nccc1Nc1nccc(-c2ccn(C(CO)c3ccc(Cl)c(F)c3)c(=O)c2)n1 (stereo not given) + Cc1nc(NC(=O)N2CCCC2C(N)=O)sc1-c1ccnc(C(C)(C)C(F)(F)F)c1,IC50,second compound 0.0316 µM,> 10000 nM
same,IC50,second compound 0.1 µM,> 10000 nM
same,IC50,second compound 0.316 µM,> 10000 nM
same,IC50,second compound 1 µM,> 10000 nM
same,IC50,second compound 3.16 µM,> 10000 nM
same,IC50,second compound 10 µM,> 10000 nM
same,"viability, T/C",[1],89.1%
same,"viability, T/C",[2],111%
same,"viability, T/C",[3],106%
same,"viability, T/C",[4],119%
same,"viability, T/C",[5],135%
same,"viability, T/C",[6],133%
same,"viability, T/C",[7],107%
same,"viability, T/C",[8],109%
same,"viability, T/C",[9],110%
same,"viability, T/C",[10],116%
same,"viability, T/C",[11],125%
same,"viability, T/C",[12],118%
same,"viability, T/C",[13],106%
same,"viability, T/C",[14],114%
same,"viability, T/C",[15],104%
same,"viability, T/C",[16],117%
same,"viability, T/C",[17],129%
same,"viability, T/C",[18],138%
same,"viability, T/C",[19],113%
same,"viability, T/C",[20],112%
same,"viability, T/C",[21],111%
same,"viability, T/C",[22],119%
same,"viability, T/C",[23],144%
same,"viability, T/C",[24],136%
same,"viability, T/C",[25],104%
same,"viability, T/C",[26],101%
same,"viability, T/C",[27],96.6%
same,"viability, T/C",[28],121%
same,"viability, T/C",[29],91.2%
same,"viability, T/C",[30],90.1%
same,"viability, T/C",[31],59.8%
same,"viability, T/C",[32],61.7%
same,"viability, T/C",[33],61%
same,"viability, T/C",[34],54.8%
same,"viability, T/C",[35],52.9%
same,"viability, T/C",[36],52.9%
